Laboratory results reported in patent publication US20140073801A1, “PYRROLIDINE DERIVATIVES AS SELECTIVE GLYCOSIDASE INHIBITORS AND USES THEREOF” (Summit Corporation Plc, priority 2011, published 2014).

What was measured:
Assay type in all cases: biochemical
human OGA = target: T1, human OGA (Homo sapiens, UniProt O60502); experiment: Determination of IC50 values for inhibition of human OGA
T1 construct: made in house
T1 sequence (O60502 1-916): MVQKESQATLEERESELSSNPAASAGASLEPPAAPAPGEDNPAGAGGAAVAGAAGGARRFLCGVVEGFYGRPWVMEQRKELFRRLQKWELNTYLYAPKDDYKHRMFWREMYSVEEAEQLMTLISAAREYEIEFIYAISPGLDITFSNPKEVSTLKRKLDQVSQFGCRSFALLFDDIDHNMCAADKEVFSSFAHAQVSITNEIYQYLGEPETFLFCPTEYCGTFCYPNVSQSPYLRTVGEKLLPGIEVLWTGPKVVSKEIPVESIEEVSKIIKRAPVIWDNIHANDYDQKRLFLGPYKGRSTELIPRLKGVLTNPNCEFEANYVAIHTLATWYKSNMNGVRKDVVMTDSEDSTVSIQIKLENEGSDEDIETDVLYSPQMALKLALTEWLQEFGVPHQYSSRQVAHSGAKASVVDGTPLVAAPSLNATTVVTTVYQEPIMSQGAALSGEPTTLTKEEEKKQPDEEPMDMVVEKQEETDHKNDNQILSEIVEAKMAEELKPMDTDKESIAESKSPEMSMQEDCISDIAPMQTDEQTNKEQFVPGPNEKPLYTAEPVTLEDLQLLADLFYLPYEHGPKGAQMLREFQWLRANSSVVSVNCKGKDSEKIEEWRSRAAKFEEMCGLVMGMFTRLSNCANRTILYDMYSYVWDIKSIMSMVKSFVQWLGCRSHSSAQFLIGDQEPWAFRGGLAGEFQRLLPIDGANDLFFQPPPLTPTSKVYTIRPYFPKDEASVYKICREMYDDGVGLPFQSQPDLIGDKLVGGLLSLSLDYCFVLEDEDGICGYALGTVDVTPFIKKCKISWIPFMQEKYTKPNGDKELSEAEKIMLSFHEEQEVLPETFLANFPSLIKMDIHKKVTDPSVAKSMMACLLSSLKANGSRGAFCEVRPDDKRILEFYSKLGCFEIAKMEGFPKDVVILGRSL
Experimental: Inhibitors identified from the screen described in Example 1 were evaluated for IC50 using a procedure adapted from Biochem. J. 2009, 420, 221-227. IC50 determination was carried out using a range of inhibitor concentrations from 300 μM to 0.003 μM or 100 μM to 0.001 μM. IC50 values were calculated using XLFit 4.

[1] = tested on: human β-hexosaminidase [human placenta] (HexA/B); experiment: Determination of IC50 values for inhibition of human β-hexosaminidase; settings: ratio
Experimental: (§1) Inhibitors identified from the screen described in Example 1 were evaluated for IC50 against human β-hexosaminidase [human placenta, Sigma-Aldrich] using a range of inhibitor concentrations from 300 μM to 0.003 μM or 100 μM to 0.001 μM and the following reaction conditions:
(§2) Reactions were carried out at room temperature for thirty minutes and then quenched through the addition of 150 μl 0.5M Na2CO3. Fluorescence readings were taken at excitation wavelength 360 nm and emission wavelength 450 nm. IC50 values were calculated using XLFit 4. The selectivity ratio for inhibition of human O-GlcNAcase over human β-hexosaminidase is defined here as:
(§3) IC50(human β-hexosaminidase)/IC50(Human OGA)

[2] = target: T2, human β-hexosaminidase [human placenta] (HexA/B); experiment: as above; settings: human β-hexosaminidase, human placenta; room temperature, thirty minutes
T2 construct: other: human β-hexosaminidase, human placenta; room temperature, thirty minutes
Experimental: as §1, §2, §3

Structure (SMILES)	IC50 (human OGA) [nM]	Selectivity: IC50(human β-hexosaminidase)/IC50(Human OGA) [1]	IC50 [2] [µM]
CCCNC(=O)C[C@H]1N[C@H](CO)[C@@H](O)[C@H]1O [Compound A004, 2-((2R,3S,4R,5R)-3,4-dihydroxy-5-(hydroxymethyl)pyrrolidin-2-yl)-N-propylacetamide]	537	>555	> 300
CNC(=O)[C@H]1NC[C@@H](O)[C@@H]1O [Compound A043, (2S,3R,4R)-3,4-dihydroxy-N-methylpyrrolidine-2-carboxamide]	10200	1.37	14
CCCNC(=O)C[C@@H]1[C@H](O)[C@H](O)[C@@H](CO)N1CCCCCCCCCO [Compound A005, 2-((2R,3S,4R,5R)-3,4-dihydroxy-5-(hydroxymethyl)-1-(9-hydroxynonyl)pyrrolidin-2-yl)-N-propylacetamide]	144	>2142	> 300
CC(C)NC(=O)C[C@H]1N[C@H](CO)[C@@H](O)[C@H]1O [Compound A013, 2-((2R,3S,4R,5R)-3,4-dihydroxy-5-(hydroxymethyl)pyrrolidin-2-yl)-N-isopropylacetamide]	130000	>2	> 300
CNC(=O)C[C@@H]1[C@H](O)[C@H](O)[C@@H](CO)N1CCCNC(=O)OC(C)(C)C [Compound A065, tert-butyl (3-((2R,3R,4S,5R)-3,4-dihydroxy-2-(hydroxymethyl)-5-(2-(methylamino)-2-oxoethyl)pyrrolidin-1-yl)propyl)carbamate]	7	8342	58.4
CCCCCCN1[C@H](CC(=O)NC)[C@H](O)[C@H](O)[C@@H]1CO [Compound A036, 2-((2R,3S,4R,5S)-1-hexyl-3,4-dihydroxy-5-(hydroxymethyl)pyrrolidin-2-yl)-N-methylacetamide]	136000	0.54	73
CNC(=O)C[C@@H]1[C@H](O)[C@H](O)[C@@H](CO)N1CCCCCCCCCO [Compound A009, 2-((2R,3S,4R,5R)-3,4-dihydroxy-5-(hydroxymethyl)-1-(9-hydroxynonyl)pyrrolidin-2-yl)-N-methylacetamide]	36	5472	197
CNC(=O)C[C@@H]1[C@H](O)[C@H](O)[C@@H](CO)N1CCCCc1ccccc1 [Compound A020, 2-((2R,3S,4R,5R)-3,4-dihydroxy-5-(hydroxymethyl)-1-(4-phenylbutyl)pyrrolidin-2-yl)-N-methylacetamide]	23	>13215	> 300
CCNC(=O)C[C@@H]1[C@@H](O)[C@H](O)[C@@H](CO)N1CCCc1ccccc1 [Compound A061, 2-((2R,3R,4R,5R)-3,4-dihydroxy-5-(hydroxymethyl)-1-(3-phenylpropyl)pyrrolidin-2-yl)-N-ethylacetamide]	69.3	>4329	> 300
CC(C)CNC(=O)C[C@@H]1[C@H](O)[C@H](O)[C@@H](CO)N1CCCc1ccccc1 [Compound A026, 2-((2R,3S,4R,5R)-3,4-dihydroxy-5-(hydroxymethyl)-1-(3-phenylpropyl)pyrrolidin-2-yl)-N-isobutylacetamide]	4390	>68.34	> 300
CNC(=O)C[C@H]1[C@@H](O)[C@H](O)[C@H](CO)N1CCCc1ccccc1 [Compound A057, 2-((2S,3R,4R,5S)-3,4-dihydroxy-5-(hydroxymethyl)-1-(3-phenylpropyl)pyrrolidin-2-yl)-N-methylacetamide]	39200	0.11	4.26
CCCCCCN1[C@H](CC(=O)NCC2CCCCC2)[C@H](O)[C@H](O)[C@H]1CO [Compound A031, N-(cyclohexylmethyl)-2-((2R,3S,4R,5R)-1-hexyl-3,4-dihydroxy-5-(hydroxymethyl)pyrrolidin-2-yl)acetamide]	75500	>3.97	> 300
CCCCCCN1[C@@H](CO)[C@H](O)[C@H](O)[C@@H]1CC(=O)NC [Compound A024, 2-((2S,3R,4S,5S)-1-hexyl-3,4-dihydroxy-5-(hydroxymethyl)pyrrolidin-2-yl)-N-methylacetamide]	143000	0.31	44
CNC(=O)C[C@@H]1[C@H](O)[C@H](O)[C@@H](CO)N1CCC1CCCCC1 [Compound A041, 2-((2R,3S,4R,5R)-1-(2-cyclohexylethyl)-3,4-dihydroxy-5-(hydroxymethyl)pyrrolidin-2-yl)-N-methylacetamide]	14	8142	114

Further molecules by falling IC50 (human OGA), results first:

IC50 (human OGA) [nM]	Selectivity: IC50(human β-hexosaminidase)/IC50(Human OGA) [1]	IC50 [2] [µM]	Structure (SMILES)
224000	>1.34	> 300	CCNC(=O)C[C@@H]1[C@@H](O)[C@H](O)[C@@H](CO)N1C(=O)CCc1ccccc1 [Compound A069, 2-((2R,3R,4R,5R)-3,4-dihydroxy-5-(hydroxymethyl)-1-(3-phenylpropanoyl)pyrrolidin-2-yl)-N-ethylacetamide]
129000	>2.3	> 300	CC(C)CNC(=O)C[C@H]1N[C@H](CO)[C@@H](O)[C@H]1O [Compound A025, 2-((2R,3S,4R,5R)-3,4-dihydroxy-5-(hydroxymethyl)pyrrolidin-2-yl)-N-isobutylacetamide]
1060	>283	> 300	CCCCCCN1[C@H](CC(=O)NC2CC2)[C@H](O)[C@H](O)[C@H]1CO [Compound A049, N-cyclopropyl-2-((2R,3S,4R,5R)-1-hexyl-3,4-dihydroxy-5-(hydroxymethyl)pyrrolidin-2-yl)acetamide]
512	>585	> 300	CCNC(=O)C[C@@H]1[C@@H](O)[C@H](O)[C@@H](CO)N1CCOc1ccc(Cl)cc1Cl [Compound A062, 2-((2R,3R,4R,5R)-1-(2-(2,4-dichlorophenoxy)ethyl)-3,4-dihydroxy-5-(hydroxymethyl)pyrrolidin-2-yl)-N-ethylacetamide]
228	>1315	> 300	CNC(=O)C[C@@H]1[C@H](O)[C@H](O)[C@@H](CO)N1CCOc1ccccc1 [Compound A037, 2-((2R,3S,4R,5R)-3,4-dihydroxy-5-(hydroxymethyl)-1-(2-phenoxyethyl)pyrrolidin-2-yl)-N-methylacetamide]
27.9	4.66	0.13	CNC(=O)C[C@H]1N[C@H](CO)[C@@H](O)[C@@H]1O [Compound A044, 2-((2R,3R,4R,5R)-3,4-dihydroxy-5-(hydroxymethyl)pyrrolidin-2-yl)-N-methylacetamide]
7	4.27	0.0299	CNC(=O)[C@H]1N[C@H](CO)[C@@H](O)[C@@H]1O [Compound A059, (2S,3R,4R,5R)-3,4-dihydroxy-5-(hydroxymethyl)-N-methylpyrrolidine-2-carboxamide]
